These results are taken from patent US20150224190A1, “Combination of a phosphoinositide 3-kinase inhibitor and an inhibitor of the IL-8/CXCR interaction” (priority 2012, published 2015).

Assay [1] relates to JAK2/STAT5. The experiment in a line: JAK2/STAT5 phosphorylation in vivo models. Also on record: species or system mice. To be noted: after 8 hours of treatment. Here is the method: Cells for Western Blotting and ELISA were lysed with RIPA buffer. […]
For assessing pJAK2 levels, an ELISA assay (Tyr1007/1008, Invitrogen) was applied because of cross-reactivity of all pJAK2 antibodies tested. Interleukin-8 levels in RIPA lysates, cell culture supernatants and mouse tail vein blood plasma were measured by ELISA, as well (Biolegend). […]
SCID/beige, SCID/NOD and Balb/c mice (Jackson Labs) were maintained under specific pathogen-free conditions and were used in compliance with protocols approved by the Institutional Animal Care and Use Committees of the FMI, which conform to institutional and national regulatory standards on experimental animal usage. […] Tumors were measured every 3 to 4 days with vernier calipers, and tumor volumes were calculated by the formula 0.5×(larger diameter)×(smaller diameter)^2. End point tumor sizes were analyzed for synergism using the formula AB/C<A/C×B/C, where C=tumor volume VHC, A=tumor volume compound 1, B=tumor volume compound 2, AB=tumor volume combination (Clarke, 1997). […]

For assay [2], the system named is IL-8. In words: IL-8 levels in dissected primary triple-negative breast tumors or plasma of mice (ELISA). The assay is classed as in vivo, human. To be noted: day 3 of treatment with 30 mg/kg BEZ235 vs vehicle. Here is the method:
FIG. 5. BEZ235 treatment activates JAK2/STAT5 and IL-8 secretion in human primary triple-negative breast tumors Bar graphs showing IL-8 levels measured by ELISA in the dissected tumors from or in the plasma of mice at day 3 of treatment with 30 mg/kg BEZ235 or vehicle (VHC). Results represent means±SEM (n=3-4, *P<0.05). For assessing pJAK2 levels, an ELISA assay ([…]/1008, Invitrogen) was applied because of cross-reactivity of all pJAK2 antibodies tested. Interleukin-8 levels in RIPA lysates, cell culture supernatants and mouse tail vein blood plasma were measured by ELISA, as well (Biolegend). Cytokine arrays on cell culture supernatants and mouse tumor lysates were performed according the manufacture's protocol (R & D systems, Human and Mouse cytokine array panel A). […] Tumors were measured every 3 to 4 days with vernier calipers, and tumor volumes were calculated by the formula 0.5×(larger diameter)×(smaller diameter)^2. End point tumor sizes were analyzed for synergism using the formula AB/C<A/C×B/C, where C=tumor volume VHC, A=tumor volume compound 1, B=tumor volume compound 2, AB=tumor volume combination (Clarke, 1997).
Background: ELISA stands for enzyme-linked immunosorbent assay.

Take `Cn1c(=O)n(-c2ccc(C(C)(C)C#N)cc2)c2c3cc(-c4cnc5ccccc5c4)ccc3ncc21` [COMPOUND A, 2-methyl-2-[4-(3-methyl-2-oxo-8-quinolin-3-yl-2,3-dihydro-imidazo[4,5-c]quinolin-1-yl)-phenyl]-propionitrile]: in assay [1], the pJAK2 result is on record as “considerable upregulation” and the pSTAT5 entry was “considerable upregulation”. Besides, the “IL-8 secretion (IL-8 levels in tumors or plasma)” value in assay [2] is given as “activates”.
